This note sets out measurements from publication PMC11510499, “Mechanism-Based Allylic Carbasugar Chlorides That Form Covalent Intermediates with α- and β-Galactosidases” (Molecules, 2024).

SMILES strings stand for the structures. Entries after “also recorded” stand apart in the source; their conditions may differ.

Type in all cases: biochemical
Series [1] deals with T1, Human α-galactosidase (GalA) (Homo sapiens, UniProt P06280).
T1 construct: purchased Biotechne
T1 sequence (P06280 32-429): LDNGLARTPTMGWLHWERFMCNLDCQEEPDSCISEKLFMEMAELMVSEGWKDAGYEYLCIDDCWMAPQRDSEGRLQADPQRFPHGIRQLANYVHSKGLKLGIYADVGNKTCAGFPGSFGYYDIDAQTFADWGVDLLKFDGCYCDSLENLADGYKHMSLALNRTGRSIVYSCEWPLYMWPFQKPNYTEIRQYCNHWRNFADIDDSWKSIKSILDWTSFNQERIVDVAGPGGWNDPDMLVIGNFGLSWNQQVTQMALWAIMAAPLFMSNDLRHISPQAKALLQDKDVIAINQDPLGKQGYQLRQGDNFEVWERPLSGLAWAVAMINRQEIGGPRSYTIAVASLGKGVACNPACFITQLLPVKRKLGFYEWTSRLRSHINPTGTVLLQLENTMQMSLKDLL
Description: Covalent inhibition (inactivation) kinetics of Human α-galactosidase (GalA). Particulars: for covalent inhibition observed: at 5 mM inhibitor, NIO = No inhibition observed, pH 4.6, 37 °C. How it is done:
(§1) Recombinant Human α-galactosidase (GalA) was purchased from Biotechne, and Aspergillus oryzae β-galactosidase was purchased from Sigma. We calculated the various rate constants for covalent inhibition of these two glycosidases by compounds 1 to 4 by use of either a classical jump dilution assay or a continuous assay protocol.
(§2) First, we incubated the enzyme using at least five different inhibitor concentrations in the appropriate buffer. We then ‘jump-diluted’ the inactivation mixture by adding 4 µL aliquots of the inhibition mixture to a pre-equilibrated 196 µL buffered solution containing substrate (see assay conditions section). We monitored the enzymatic activity using either UV-vis (Cary300, Agilent Technologies, Santa Clara, CA, United States) or fluorescence (Cary Eclipse). All rate constants for inhibition (kobs) were calculated using a standard nonlinear least squares fit of enzyme activity (%) versus time data to a first-order equation. We then used a standard Michaelis–Menten expression to evaluated kinact and kinact/Ki for covalent inhibition using a standard nonlinear least squares fitting routine. However, in cases where we noted insufficient saturation of inhibitor, we used a standard linear fit of the kobs versus covalent inhibitor concentration to obtain the inhibition rate constant kinact/Ki.
(§3) Second, we also used a continuous assay protocol in which we added the enzyme to a pre-equilibrated buffered mixture containing substrate and inhibitor. We monitored the reaction continuously until we noted that the rate of fluorophore (or chromophore) became linear following the initial first-order process. We repeated these experiments for at least five other inhibitor concentrations. We calculated the apparent rate constant (kapp) at every inhibitor concentration by fitting the progress curves to equation 1 (for UV-Vis or a similar equation for fluorescence data), where Vi is the initial velocity at t = 0 and Vf is the velocity at t = ∞ [31]. (1) Abs=νft+νi−νf/kapp1−e^−kappt
(§4) The kapp values versus inhibitor concentrations were then fit to a modified Michaelis–Menten expression for competitive inhibition (equation 2), which gives the second-order inhibition parameter kinact/Ki only. (2) kapp=kreact+kinact/KiI/1+S/Km
(§5) The release of 4-nitrophenol was monitored at 400 nm, while the release of 4-methylumbelliferone was monitored at 365 nm excitation and 445 emission wavelengths. All rate constants were determined by fitting experimental data on the computer program GraphPad Prism 10.0 (GraphPad Software, Boston, MA, USA).

For series [2], the target named is T2, A. oryzae GH35 β-galactosidase (LacA) (Aspergillus oryzae, UniProt Q2UCU3).
T2 construct: purchased Sigma
T2 sequence (Q2UCU3 19-1005): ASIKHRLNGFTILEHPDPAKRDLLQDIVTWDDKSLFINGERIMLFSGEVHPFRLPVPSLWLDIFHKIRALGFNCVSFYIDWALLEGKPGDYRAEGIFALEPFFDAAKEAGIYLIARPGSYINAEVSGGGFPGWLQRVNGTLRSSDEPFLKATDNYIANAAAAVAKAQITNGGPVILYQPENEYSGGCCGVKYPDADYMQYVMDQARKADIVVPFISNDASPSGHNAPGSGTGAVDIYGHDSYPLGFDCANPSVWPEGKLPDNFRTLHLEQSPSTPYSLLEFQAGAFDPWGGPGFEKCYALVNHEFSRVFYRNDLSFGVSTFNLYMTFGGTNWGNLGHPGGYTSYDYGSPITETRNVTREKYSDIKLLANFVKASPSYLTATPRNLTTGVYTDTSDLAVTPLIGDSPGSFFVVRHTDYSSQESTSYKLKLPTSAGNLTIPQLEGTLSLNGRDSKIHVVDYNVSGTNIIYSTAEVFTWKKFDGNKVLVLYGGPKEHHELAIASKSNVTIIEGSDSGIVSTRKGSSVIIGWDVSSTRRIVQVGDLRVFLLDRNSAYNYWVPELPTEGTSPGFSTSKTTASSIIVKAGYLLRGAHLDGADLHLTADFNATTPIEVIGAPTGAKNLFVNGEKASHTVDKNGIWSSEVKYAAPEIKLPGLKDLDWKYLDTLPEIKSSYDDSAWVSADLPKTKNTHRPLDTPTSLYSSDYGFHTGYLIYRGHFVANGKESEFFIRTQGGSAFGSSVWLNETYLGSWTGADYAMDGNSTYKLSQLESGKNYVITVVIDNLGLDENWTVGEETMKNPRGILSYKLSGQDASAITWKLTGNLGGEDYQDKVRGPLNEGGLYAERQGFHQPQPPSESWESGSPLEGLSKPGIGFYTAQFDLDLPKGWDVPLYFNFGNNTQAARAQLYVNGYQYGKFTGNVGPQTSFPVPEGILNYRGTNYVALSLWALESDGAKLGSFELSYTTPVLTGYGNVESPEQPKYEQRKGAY
The series can be described thus: Covalent inhibition (inactivation) kinetics of A. oryzae β-galactosidase (LacA). Particulars: for kinact/Ki: 50 mM sodium acetate buffer. How it is done:
as §1, §2, §3, §4, §5

In series [3] the target is T2, A. oryzae GH35 β-galactosidase (LacA). Description: Reactivation kinetics of covalently inhibited A. oryzae β-galactosidase (LacA). The settings on record: 50 mM sodium acetate buffer, pH 4.5, 0.1% BSA, 37 °C; for t1/2: half-life of covalent intermediate. How it is done: (§6) In summary, all inhibitors that covalently label either Human α-galactosidase or Aspergillus oryzae β-galactosidase display linear second-order kinetics where the slopes of the graphs give kinact/Ki (Table 1 and Table 2). That is, no saturation binding is noted even up to inhibitor concentrations of 8 mM, i.e., Ki » 8 mM. […] As a result, reactivation kinetics were monitored by diluting a quantity of inhibited enzyme into a buffered solution containing substrate. Shown in Figure 3 are the measured gradients (time intervals of 100 s) from the absorbance versus time plot of the reactivation for GH35 A. oryzae β-galactosidase with 1–3.
(§7) We monitored a concentrated solution of enzyme and inhibitor at 37 °C until the measured enzyme activity dropped to under 5% of that initially measured. We then added a small volume (typically 0.5 µL) to a pre-equilibrated reactivation buffer containing substrate (200 µL). We then continuously monitored the release of either the chromophore or the fluorophore. We then calculated signal versus time gradient slope at uniform time intervals to give reaction rates. We fit these computed values to a standard first-order rate equation (Prism 10.0) to give us the first order reactivation rate constant (kreact).

Series [4] concerns the target T1, Human α-galactosidase (GalA). Description: Reactivation kinetics of covalently inhibited Human α-galactosidase (GalA). The settings on record: 50 mM sodium citrate buffer, pH 4.6, 50 mM NaCl, 0.1% BSA, 37 °C; for t1/2: half-life of covalent intermediate. As to the method: as §6, §7

`O[C@@H]1[C@@H](O)[C@@H](O)C=C[C@H]1Cl` [Compound 1, 5,5a-didehydro-5a-carba-β-L-arabino-hexopyranosyl chloride]: the “covalent inhibition observed” value in series [1] is on record as “no measurable covalent inhibition; also recorded: NIO ^a at 5 mM”. Moreover, the kinact/KI in series [2] (pH 4.5, 50 mM sodium acetate buffer, pH 4.5, 0.1% BSA, 37 °C) is 17 ± 0.5 M⁻¹ s⁻¹. Besides, in series [3], the kreact entry is recorded as “(2.5 ± 0.1) × 10^−3 s^−1” and the t1/2 amounted to 4.6 ± 0.2 min.

As for `OC1C=CC(Cl)C(O)C1O` (stereo not drawn) [Compound 2], in series [1] (pH 4.6, 50 mM sodium citrate buffer, pH 4.6, 50 mM NaCl, 0.1% BSA, 37 °C), the inactivation efficiency (kinact/KI) stood at 0.25 ± 0.004 M⁻¹ s⁻¹. In series [4], the kreact result is “(5.1 ± 0.2) × 10^−4 s^−1” and the t1/2 turned out to be 22.5 ± 0.7 min. The kinact/Ki in series [2] (pH 4.5, 0.1% BSA, 37 °C) was 47 ± 2 M⁻¹ s⁻¹. In series [3], the kreact result is “(2.6 ± 0.2) × 10^−3 s^−1” and the t1/2 was determined as 4.5 ± 0.3 min.

Regarding `OC1C=CC(Cl)C(O)C1O` (stereo not drawn) [Compound 3], the kinact/Ki was 0.18 ± 0.01 M⁻¹ s⁻¹ in series [1] (50 mM sodium citrate buffer, pH 4.6, 50 mM NaCl, 0.1% BSA, 37 °C) and 2.7 ± 0.04 M⁻¹ s⁻¹ in series [2] (pH 4.5, 0.1% BSA, 37 °C). Besides, the results for the kreact result in series [4] and in series [3] were “(4.9 ± 0.2) × 10^−4 s^−1” and “(2.6 ± 0.2) × 10^−3 s^−1”, respectively. The t1/2 turned out to be 23.4 ± 0.9 min in series [4] and 4.5 ± 0.3 min in series [3].

As to `O[C@@H]1[C@H](O)[C@@H](O)C=C[C@H]1Cl` [Compound 4], the “covalent inhibition observed” value in series [1] is recorded as “no measurable covalent inhibition; also recorded: NIO ^a at 5 mM”; in series [2] (at 1 mM inhibitor, NIO = No inhibition observed, pH 4.5, 37 °C), “no activity; also recorded: NIO ^a at 1 mM”.
